Results from US8859574B2 (IRM LLC, priority 2008, dated 2014).

biological target: T1, IGF-1R Ba/F3 (Homo sapiens, UniProt P08069); experiment: Ba/F3 Cell Viability Inhibition Assay (IGF-1R Ba/F3); assay type: cell-based, murine; settings: Tel-TK transformed Ba/F3 cells, 48 hours, Britelite luminescence
T1 construct: fused on or other part: TEL- (or BCR-) IGF-1R in Ba/F3: the kinase part holds the site
Excerpt: The IC50 of a drug may be determined constructing a dose-response curve and examining the effect of different concentrations of antagonist on reversing agonist activity. IC50 values may be calculated for a given antagonist by determining the concentration needed to inhibit half of the maximum biological response of the agonist. To calculate IC50 values, a series of dose-response data (e.g., drug concentrations x1, x2, . . . , xn and growth inhibition y1, y2, . . . , yn, the values of y are in the range of 0-1) is generated. IC50 values may be determined by a computer-aided system using the formula: y=D+((A−D)/(1+10^(x-log(IC50)B) • where A is the ratio of growth inhibition between lowest drug concentration and control; B is the slope of sigmoidal curvel; and D is the ratio of growth inhibition between highest drug concentration and control.
Ba/F3 is a murine IL-3-dependent pro-B lymphoma cell line. Parental Ba/F3 cells are used to generate a panel of sublines whose proliferation and survival is rendered IL-3-independent by stable transduction with individual tyrosine kinases activated by fusion with the amino-terminal portion of TEL (amino acid 1-375) or BCR. In order to generate Ba/F3 cell lines transformed by Tel-Tyrosine Kinase (TK) fusions, parental Ba/F3 cells are infected with a retrovirus harboring each TEL-fusion kinase and subjected to puromycin selection and IL-3 withdrawal to obtain IL-3-independent, transformed Ba/F3 cells.
Each transformed Ba/F3 cells are cultured in RPMI-1640 media (Gibco Cat #11875093, Carlsbad, Calif.) supplemented with 10% FBS (Hyclone Cat #SV30014.03, Logan, Utah), 4.5 g/L glucose (Sigma #G5400, St. Louis, Mo.), 1.5 g/L sodium bicarbonate (Biowhittaker #17-613E, Walkersville, Md.) and Pen/Strep (Gibco #10378-016, Carlsbad, Calif.). Cells are splitted twice weekly.
The potency of test compounds against various Tel-TK transformed Ba/F3 lines is determined as follows. Exponentially growing BaF3 Tel-TK cells are diluted in fresh medium to 75,000 cells/mL and seeded into 384-well plates (3750 cells/well) at 50 μL/well using a μFill liquid dispenser (BioTek, Winooski, Vt., USA). Duplicate plates are run for each cell line. Test and control compounds are serially diluted with DMSO and arrayed in a polypropylene 384-well plate. […] of compound is transferred into the assay plates using a pin-transfer device, and the plates are incubated at 37° C. (5% CO2) for 48 hours. 25 μL Britelite (Perkin Elmer) is added and luminescence is quantified using Analyst GT (Molecular Devices). Custom curve-fitting software is used to produce a logistic fit of percent cell viability as a function of the logarithm of inhibitor concentration. The IC50 is interpolated as the concentration of compound needed to reduce cell viability to 50% of a DMSO control. Parental Ba/F3 cells that are maintained and cultured in presence of IL-3 (1 ng/ml in final) are diluted in fresh medium containing IL-3 (1 ng/ml in final) to 75,000 cells/mL following the same procedure as described above.

T1 sequence (P08069 999-1274 limits assumed): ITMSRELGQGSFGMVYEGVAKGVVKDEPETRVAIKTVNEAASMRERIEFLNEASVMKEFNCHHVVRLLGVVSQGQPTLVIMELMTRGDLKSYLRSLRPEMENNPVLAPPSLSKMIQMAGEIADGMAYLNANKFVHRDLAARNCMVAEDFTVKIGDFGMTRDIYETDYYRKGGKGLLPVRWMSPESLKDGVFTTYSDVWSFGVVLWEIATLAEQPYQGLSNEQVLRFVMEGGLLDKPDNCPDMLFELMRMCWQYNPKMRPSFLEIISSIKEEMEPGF

Structure (SMILES) | IC50 [nM]
CNC(=O)C(C)N1CCC(c2cc(F)c(Nc3ncc(Cl)c(Nc4cc(C)[nH]n4)n3)cc2C)CC1 (stereo not drawn) [Compound 50, 2-(4-(4-(5-chloro-4-(5-methyl-1H-pyrazol-3-ylamino)pyrimidin-2-ylamino)-5-fluoro-2-methylphenyl)piperidin-1-yl)-N-methylpropanamide] | 22
Cc1cc(Nc2nc(Nc3cc(C)c(C4CCN(C(C)C(N)=O)CC4)cc3C)ncc2Cl)n[nH]1 (stereo not drawn) [Compound 51, 2-(4-(4-(5-chloro-4-(5-methyl-1H-pyrazol-3-ylamino)pyrimidin-2-ylamino)-2,5-dimethylphenyl)piperidin-1-yl)propanamide] | 9
CNC(=O)C(C)N1CCC(c2cc(C)c(Nc3ncc(Cl)c(Nc4cc(C)[nH]n4)n3)cc2C)CC1 (stereo not drawn) [Compound 52, 2-(4-(4-(5-chloro-4-(5-methyl-1H-pyrazol-3-ylamino)pyrimidin-2-ylamino)-2,5-dimethylphenyl)piperidin-1-yl)-N-methylpropanamide] | 6
Cc1cc(Nc2nc(Nc3cc(C)c(C4CCN(C(C)C(N)=O)CC4)cc3F)ncc2C(F)(F)F)n[nH]1 (stereo not drawn) [Compound 53, 2-(4-(5-fluoro-2-methyl-4-(4-(5-methyl-1H-pyrazol-3-ylamino)-5-(trifluoromethyl)pyrimidin-2-ylamino)phenyl)piperidin-1-yl)propanamide] | 78
Cc1cc(Nc2nc(Nc3cc(C)c(C4CCN(C(C)C(=O)O)CC4)cc3F)ncc2Cl)n[nH]1 (stereo not drawn) [Compound 54, 2-(4-(4-(5-chloro-4-(5-methyl-1H-pyrazol-3-ylamino)pyrimidin-2-ylamino)-5-fluoro-2-methylphenyl)piperidin-1-yl)propanoic acid] | 1530
Cc1cc(Nc2nc(Nc3cc(C)c(C4CCN(CCS(C)(=O)=O)CC4)cc3F)ncc2Cl)n[nH]1 [Compound 55, 5-Chloro-N2-(2-fluoro-5-methyl-4-(1-(2-(methylsulfonyl)ethyl)piperidin-4-yl)phenyl)-N4-(5-methyl-1H-pyrazol-3-yl)pyrimidine-2,4-diamine] | 24
Cc1cc(Nc2nc(Nc3cc(C)c(C4CCN(CCS(C)(=O)=O)CC4)cc3C)ncc2Cl)n[nH]1 [Compound 56, 5-chloro-N2-(2,5-dimethyl-4-(1-(2-(methylsulfonyl)ethyl)piperidin-4-yl)phenyl)-N4-(5-methyl-1H-pyrazol-3-yl)pyrimidine-2,4-diamine] | 6
CCS(=O)(=O)CCN1CCC(c2cc(F)c(Nc3ncc(Cl)c(Nc4cc(C)[nH]n4)n3)cc2C)CC1 [Compound 57, 5-chloro-N2-(4-(1-(2-(ethylsulfonyl)ethyl)piperidin-4-yl)-2-fluoro-5-methylphenyl)-N4-(5-methyl-1H-pyrazol-3-yl)pyrimidine-2,4-diamine] | 21
Cc1cc(Nc2nc(Nc3cc(C)c(C4CCN(CCS(=O)(=O)N(C)C)CC4)cc3F)ncc2Cl)n[nH]1 [Compound 58, 2-(4-(4-(5-chloro-4-(5-methyl-1H-pyrazol-3-ylamino)pyrimidin-2-ylamino)-5-fluoro-2-methylphenyl)piperidin-1-yl)-N,N-dimethylethanesulfonamide] | 36
Cc1cc(Nc2nc(Nc3cc(C)c(C4CCN(CCS(N)(=O)=O)CC4)cc3F)ncc2Cl)n[nH]1 [Compound 59, 2-(4-(4-(5-chloro-4-(5-methyl-1H-pyrazol-3-ylamino)pyrimidin-2-ylamino)-5-fluoro-2-methylphenyl)piperidin-1-yl)ethanesulfonamide] | 38
Cc1cc(Nc2nc(Nc3cc(Cl)c(C4CCN(CCS(=O)(=O)N5CCC5)CC4)cc3C)ncc2Cl)n[nH]1 [Compound 60, N2-(4-(1-(2-(azetidin-1-ylsulfonyl)ethyl)piperidin-4-yl)-5-chloro-2-methylphenyl)-5-chloro-N4-(5-methyl-1H-pyrazol-3-yl)pyrimidine-2,4-diamine] | 11
Cc1cc(Nc2nc(Nc3cc(C)c(C4CCN(CCS(=O)(=O)N5CCC5)CC4)cc3F)ncc2Cl)n[nH]1 [Compound 61, N2-(4-(1-(2-(azetidin-1-ylsulfonyl)ethyl)piperidin-4-yl)-2-fluoro-5-methylphenyl)-5-chloro-N4-(5-methyl-1H-pyrazol-3-yl)pyrimidine-2,4-diamine] | 56
Cc1cc(Nc2nc(Nc3cc(C)c(C4CCN(S(C)(=O)=O)CC4)cc3F)ncc2Cl)n[nH]1 [Compound 62, 5-Chloro-N2-(2-fluoro-5-methyl-4-(1-(methylsulfonyl)piperidin-4-yl)phenyl)-N4-(5-methyl-1H-pyrazol-3-yl)pyrimidine-2,4-diamine] | 5
Cc1cc(Nc2nc(Nc3cc(C)c(C4CCN(S(C)(=O)=O)CC4)cc3C)ncc2Cl)n[nH]1 [Compound 63, 5-chloro-N2-(2,5-dimethyl-4-(1-(methylsulfonyl)piperidin-4-yl)phenyl)-N4-(5-methyl-1H-pyrazol-3-yl)pyrimidine-2,4-diamine] | 2
Cc1cc(Nc2nc(Nc3cc(C)c(C4CCN(S(=O)(=O)C5CC5)CC4)cc3F)ncc2Cl)n[nH]1 [Compound 64, 5-chloro-N2-(4-(1-(cyclopropylsulfonyl)piperidin-4-yl)-2-fluoro-5-methylphenyl)-N4-(5-methyl-1H-pyrazol-3-yl)pyrimidine-2,4-diamine] | 59
Cc1cc(Nc2nc(Nc3cc(C)c(C4CCN(S(=O)(=O)c5cccnc5)CC4)cc3F)ncc2Cl)n[nH]1 [Compound 65, 5-chloro-N2-(2-fluoro-5-methyl-4-(1-(pyridin-3-ylsulfonyl)piperidin-4-yl)phenyl)-N4-(5-methyl-1H-pyrazol-3-yl)pyrimidine-2,4-diamine] | 76
CCOC(=O)N1CCC(c2cc(F)c(Nc3ncc(Cl)c(Nc4cc(C)[nH]n4)n3)cc2C)CC1 [Compound 66, Ethyl 4-(4-(5-chloro-4-(5-methyl-1H-pyrazol-3-ylamino)pyrimidin-2-ylamino)-5-fluoro-2-methylphenyl)piperidine-1-carboxylate] | 64
CCOC(=O)N1CCC(c2cc(C)c(Nc3ncc(Cl)c(Nc4cc(C)[nH]n4)n3)cc2Cl)CC1 [Compound 67, ethyl 4-(2-chloro-4-(5-chloro-4-(5-methyl-1H-pyrazol-3-ylamino)pyrimidin-2-ylamino)-5-methylphenyl)piperidine-1-carboxylate] | 182
Cc1cc(Nc2nc(Nc3cc(C)c(C4CCN(C(=O)OC(C)C)CC4)cc3F)ncc2Cl)n[nH]1 [Compound 68, isopropyl 4-(4-(5-chloro-4-(5-methyl-1H-pyrazol-3-ylamino)pyrimidin-2-ylamino)-5-fluoro-2-methylphenyl)piperidine-1-carboxylate] | 80
Cc1cc(Nc2nc(Nc3cc(C)c(C4CCN(C(=O)N(C)C)CC4)cc3F)ncc2Cl)n[nH]1 [Compound 69, 4-(4-(5-Chloro-4-(5-methyl-1H-pyrazol-3-ylamino)pyrimidin-2-ylamino)-5-fluoro-2-methylphenyl)-N,N-dimethylpiperidine-1-carboxamide] | 11
Cc1cc(Nc2nc(Nc3cc(C)c(C4CCN(C(=O)N(C)C)CC4)cc3C)ncc2Cl)n[nH]1 [Compound 70, 4-(4-(5-chloro-4-(5-methyl-1H-pyrazol-3-ylamino)pyrimidin-2-ylamino)-2,5-dimethylphenyl)-N,N-dimethylpiperidine-1-carboxamide] | 6
CCNC(=O)N1CCC(c2cc(C)c(Nc3ncc(Cl)c(Nc4cc(C)[nH]n4)n3)cc2C)CC1 [Compound 71, 4-(4-(5-chloro-4-(5-methyl-1H-pyrazol-3-ylamino)pyrimidin-2-ylamino)-2,5-dimethylphenyl)-N-ethylpiperidine-1-carboxamide] | 2
Cc1cc(Nc2nc(Nc3cc(C)c(C4CCN(C(N)=O)CC4)cc3C)ncc2Cl)n[nH]1 [Compound 72, 4-(4-(5-chloro-4-(5-methyl-1H-pyrazol-3-ylamino)pyrimidin-2-ylamino)-2,5-dimethylphenyl)piperidine-1-carboxamide] | 6
Cc1cc(Nc2nc(Nc3cc(C)c(C4CCN(C(=O)CN(C)C)CC4)cc3F)ncc2Cl)n[nH]1 [Compound 73, 1-(4-(4-(5-chloro-4-(5-methyl-1H-pyrazol-3-ylamino)pyrimidin-2-ylamino)-5-fluoro-2-methylphenyl)piperidin-1-yl)-2-(dimethylamino)ethanone] | 19
